Results reported in ChEMBL document CHEMBL1153665, “Development of L-689,065 - the prototype of a new class of potent 5-lipoxygenase inhibitors” (Bioorg Med Chem Lett, 1992).

What was measured:
[1] = molecular target: T1, Polyunsaturated fatty acid 5-lipoxygenase (Rattus norvegicus, UniProt P12527); test: Compound was tested for its inhibitory activity against 5-lipoxygenase in rat.
T1 sequence (P12527 whole entry): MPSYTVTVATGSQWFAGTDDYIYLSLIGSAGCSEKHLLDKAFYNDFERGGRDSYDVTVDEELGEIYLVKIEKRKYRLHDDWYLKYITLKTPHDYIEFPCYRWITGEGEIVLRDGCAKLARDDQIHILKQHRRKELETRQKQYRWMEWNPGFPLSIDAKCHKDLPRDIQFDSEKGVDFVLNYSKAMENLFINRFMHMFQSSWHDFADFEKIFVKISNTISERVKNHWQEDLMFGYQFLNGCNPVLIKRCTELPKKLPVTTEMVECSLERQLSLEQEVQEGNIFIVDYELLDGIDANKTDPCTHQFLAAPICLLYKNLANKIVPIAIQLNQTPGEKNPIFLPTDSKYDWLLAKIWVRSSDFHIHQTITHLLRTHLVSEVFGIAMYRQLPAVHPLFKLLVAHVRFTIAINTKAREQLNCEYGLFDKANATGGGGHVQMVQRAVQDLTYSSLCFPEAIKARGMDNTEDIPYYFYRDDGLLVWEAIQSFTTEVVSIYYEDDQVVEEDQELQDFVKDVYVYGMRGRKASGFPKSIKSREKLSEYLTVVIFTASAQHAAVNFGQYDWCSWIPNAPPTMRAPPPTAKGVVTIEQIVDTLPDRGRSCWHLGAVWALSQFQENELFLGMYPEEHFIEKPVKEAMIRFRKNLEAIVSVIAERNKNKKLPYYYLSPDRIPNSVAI

[2] = molecular target: T2, Arachidonate 5-lipoxygenase-activating protein (Homo sapiens, UniProt P20292); test: Compound was tested for its binding activity towards 5-lipoxygenase activating protein (FLAP)
T2 sequence (P20292 whole entry): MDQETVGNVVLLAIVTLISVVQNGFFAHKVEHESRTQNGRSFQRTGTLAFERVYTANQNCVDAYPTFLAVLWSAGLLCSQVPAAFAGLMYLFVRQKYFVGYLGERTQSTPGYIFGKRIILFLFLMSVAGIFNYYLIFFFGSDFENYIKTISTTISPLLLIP

[3] = Maximum plasma concentration in rats when a oral dose of 200 mg/kg was given; format: ADME, organism-based; parameters: dose 200 mg/kg, route oral; settings: rat
[4] = system: Rattus norvegicus; test: Compound was tested for inhibition of dyspnea at 0.5 mg/kg when administered perorally in rats; format: functional; settings: route oral
[5] = system: Rattus norvegicus; test: Time to reach maximum concentration following oral administration of 200 mg/kg in rat; value ranges from 2-4; format: ADME, organism-based; parameters: dose 200 mg/kg, route oral; settings: in vivo

IC50 [1] | IC50 [2] | Cmax [3] | T max [5] | SMILES | inhibition in vivo at 0.5 mg/kg [4]
700 nM | 9.3 nM |  |  | Cc1c(CC(C)(C)C(=O)O)n(Cc2ccc(Cl)cc2)c2ccc(OCc3ccc(-c4ccccc4)cn3)cc12 | 
> 5000 nM | 2.8 nM |  |  | Cc1c(CC(C)(C)C(=O)O)n(Cc2ccc(Cl)cc2)c2ccc(OCc3ccc4ccccc4n3)cc12 | 
> 8000 nM | 27 nM |  |  | C=CCc1c(OCc2ccc3ccccc3n2)ccc2c1c(SC(C)(C)C)c(CC(C)(C)C(=O)O)n2Cc1ccc(Cl)cc1 | 
300 nM | 19 nM |  |  | CC1Cc2c(OCc3ccc4ccccc4n3)ccc3c2c(c(CC(C)(C)C(=O)O)n3Cc2ccc(Cl)cc2)S1 (centres undefined) | 
60 nM | 22000 nM | 5 µM | 2 h | CC1Cc2c(OCc3ccc(-c4ccccc4)cn3)ccc3c2c(c(CC(C)(C)C(=O)O)n3Cc2ccc(Cl)cc2)S1 (racemic) | 55%
150 nM | > 10000 nM |  |  | CC1Cc2c(OCc3ccc(-c4ccccc4)cn3)ccc3c2c(c(CC(C)(C)C(=O)O)n3Cc2ccc(Cl)cc2)S1 (single isomer, unassigned; (+)) | 
40 nM | > 10000 nM |  |  | CC1Cc2c(OCc3ccc(-c4ccccc4)cn3)ccc3c2c(c(CC(C)(C)C(=O)O)n3Cc2ccc(Cl)cc2)S1 (single isomer, unassigned; (-)) | 
> 2000 nM | 2.3 nM |  |  | CC(C)(C)Sc1c(CC(C)(C)C(=O)O)n(Cc2ccc(Cl)cc2)c2ccc(OCc3ccc4ccccc4n3)cc12 [QUIFLAPON] | 
